Experimental data taken from the supplement of paper PMC11208160.

Experiment: recombinant UMI read abundance after kanamycin selection (control-corrected) (log10(CPM+1)); higher = more efficient recombination; extreme values may be limits of the assay; sequences stand for … in AGTGCAGAGAAAATCGGCCAGTTTTCTCTGCCTGCAGTCCGCATGCCGTGGGACCCCTTGGGTTCTAACCTGTTGCCTAGATTTATGCAGCGGACTGCCTTTCTCCCAAAGTGATAAACCGG…AGGTTGGTTTCACT; site = the 11-nt donor
Procedure, shortened: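 Values, expressed as log10(CPM+1), derive from recombinant UMI counts converted to CPM, averaged across replicates and scaled by control-derived factors. Plating was with IPTG (0.07 mM) plus kanamycin or unselected, two replicates each. The screen pooled donor and donor-binding-loop pairs for the IS621 bridge recombinase in Escherichia coli.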
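Also: IS621 bridge recombinase in Escherichia coli cells against a fixed T5 target plasmid.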

Row | Sequence | recombinant UMI read abundance (log10)
1 | CCGTTAGCATGGACCGGTTTTCCCGGTAATCCGTATTTGTG (site CCGTTAGCTGA) | 0
2 | CCGTTAGCATGGACCGGTTTTCCCGGTAATCCGTATTTGTG (site CCGTTAGCTTA) | 0
3 | CCGTTAGCATGGACCGGTTTTCCCGGTAATCCGTATTTGTG (site CCGTTATCTCA) | 0
4 | CCGTTAGCATGGACCGGTTTTCCCGGTAATCCGTATTTGTG (site CCGTTCGCTCA) | 0
5 | CCGTTAGCATGGACCGGTTTTCCCGGTAATCCGTATTTGTG (site CCGTTGGCTCA) | 0.0165
6 | CCGTTAGCATGGACCGGTTTTCCCGGTAATCCGTATTTGTG (site CCGTTTGCTCA) | 0.00521
7 | CCGTTAGCATGGACCGGTTTTCCCGGTAATCCGTATTTGTG (site CCTTTAGCTCA) | 0.015
8 | CCGTTAGCATGGACCGGTTTTCCCGGTAATCCGTATTTGTG (site CGGTTAGCTCA) | 0.00954
9 | CCGTTAGCATGGACCGGTTTTCCCGGTAATCCGTATTTGTG (site CTGTTAGCTCA) | 0.164
10 | CCGTTAGCATGGACCGGTTTTCCCGGTAATCCGTATTTGTG (site GCGTTAGCTCA) | 0
11 | CCGTTAGCATGGACCGGTTTTCCCGGTAATCCGTATTTGTG (site TCGTTAGCTCA) | 0.00762
12 | CCGTTCGCATGGACCGGTTTTCCCGGTAATCCGTATTTGTA (site CCGTTCGCTTA) | 0.827
13 | CCGTTCTCATGGACCGGTTTTCCCGGTAATCCGTATTTGGG (site CCATTCTCTCC) | 0.00249
14 | CCGTTCTCATGGACCGGTTTTCCCGGTAATCCGTATTTGGG (site CCCTTCTCTCC) | 0
15 | CCGTTCTCATGGACCGGTTTTCCCGGTAATCCGTATTTGGG (site CCGTTCTCTCC) | 0
16 | CCGTTCTCATGGACCGGTTTTCCCGGTAATCCGTATTTGGG (site CCTTTCTCTCC) | 0
17 | CCGTTGACATGGACCGGTTTTCCCGGTAATCCGTATTTGCT (site CCGTTAACTAG) | 0
18 | CCGTTGACATGGACCGGTTTTCCCGGTAATCCGTATTTGCT (site CCGTTCACTAG) | 0
19 | CCGTTGACATGGACCGGTTTTCCCGGTAATCCGTATTTGCT (site CCGTTGACTAG) | 1.05
20 | CCGTTGACATGGACCGGTTTTCCCGGTAATCCGTATTTGCT (site CCGTTTACTAG) | 0
21 | CCGTTTACATGGACCGGTTTTCCCGGTAATCCGTATTTGCC (site CCGTTTACTAG) | 0
22 | CCGTTTACATGGACCGGTTTTCCCGGTAATCCGTATTTGCC (site CCGTTTACTCG) | 0
23 | CCGTTTACATGGACCGGTTTTCCCGGTAATCCGTATTTGCC (site CCGTTTACTGG) | 0

Row | Sequence | recombinant UMI read abundance (log10)
24 | CCGTTTACATGGACCGGTTTTCCCGGTAATCCGTATTTGCC (site CCGTTTACTTG) | 0
25 | CCGTTTACATGGACCGGTTTTCCCGGTAATCCGTATTTGTT (site CCGTTTACTAA) | 0.175
26 | CCGTTTACATGGACCGGTTTTCCCGGTAATCCGTATTTGTT (site CCGTTTACTAC) | 0
27 | CCGTTTACATGGACCGGTTTTCCCGGTAATCCGTATTTGTT (site CCGTTTACTAG) | 0
28 | CCGTTTACATGGACCGGTTTTCCCGGTAATCCGTATTTGTT (site CCGTTTACTAT) | 0
29 | CCGTTTGCATGGACCGGTTTTCCCGGTAATCCGTATTTGCT (site CCGTTTACTAG) | 0
30 | CCGTTTGCATGGACCGGTTTTCCCGGTAATCCGTATTTGCT (site CCGTTTCCTAG) | 0
31 | CCGTTTGCATGGACCGGTTTTCCCGGTAATCCGTATTTGCT (site CCGTTTGCTAG) | 0
32 | CCGTTTGCATGGACCGGTTTTCCCGGTAATCCGTATTTGCT (site CCGTTTTCTAG) | 0
33 | CCGTTTGCATGGACCGGTTTTCCCGGTAATCCGTATTTGGT (site CCGTTTGCTAC) | 0.48
34 | CCTAAACCATGGACCGGTTTTCCCGGTAATCCGTATTTGAT (site CCTAAAACTAT) | 0
35 | CCTAAACCATGGACCGGTTTTCCCGGTAATCCGTATTTGAT (site CCTAAACCTAT) | 0
36 | CCTAAACCATGGACCGGTTTTCCCGGTAATCCGTATTTGAT (site CCTAAAGCTAT) | 0
37 | CCTAAACCATGGACCGGTTTTCCCGGTAATCCGTATTTGAT (site CCTAAATCTAT) | 0
38 | CCTAAAGCATGGACCGGTTTTCCCGGTAATCCGTATTTGAC (site CCTAAAGCTAT) | 0
39 | CCTAAAGCATGGACCGGTTTTCCCGGTAATCCGTATTTGAC (site CCTAAAGCTCT) | 0.00302
40 | CCTAAAGCATGGACCGGTTTTCCCGGTAATCCGTATTTGAC (site CCTAAAGCTGT) | 0
41 | CCTAAAGCATGGACCGGTTTTCCCGGTAATCCGTATTTGAC (site CCTAAAGCTTT) | 0.0124
42 | CCTAAATCATGGACCGGTTTTCCCGGTAATCCGTATTTGAT (site CCTAAAACTAT) | 0
43 | CCTAAATCATGGACCGGTTTTCCCGGTAATCCGTATTTGAT (site CCTAAACCTAT) | 0
44 | CCTAAATCATGGACCGGTTTTCCCGGTAATCCGTATTTGAT (site CCTAAAGCTAT) | 0
45 | CCTAAATCATGGACCGGTTTTCCCGGTAATCCGTATTTGAT (site CCTAAATCTAT) | 0.00669
46 | CCTAACCCATGGACCGGTTTTCCCGGTAATCCGTATTTGAG (site CCTAACCCTCT) | 0.00788

Row | Sequence | recombinant UMI read abundance (log10)
47 | CCTAACGCATGGACCGGTTTTCCCGGTAATCCGTATTTGCT (site CCTAACGCTAG) | 0
48 | CCTAATACATGGACCGGTTTTCCCGGTAATCCGTATTTGCC (site CCTAATACTGA) | 0
49 | CCTAATACATGGACCGGTTTTCCCGGTAATCCGTATTTGCC (site CCTAATACTGC) | 0
50 | CCTAATACATGGACCGGTTTTCCCGGTAATCCGTATTTGCC (site CCTAATACTGG) | 0
51 | CCTAATACATGGACCGGTTTTCCCGGTAATCCGTATTTGCC (site CCTAATACTGT) | 0
52 | CCTAATACATGGACCGGTTTTCCCGGTAATCCGTATTTGGA (site CCTAATACTAC) | 0
53 | CCTAATACATGGACCGGTTTTCCCGGTAATCCGTATTTGGA (site CCTAATACTCC) | 0.00642
54 | CCTAATACATGGACCGGTTTTCCCGGTAATCCGTATTTGGA (site CCTAATACTGC) | 0
55 | CCTAATACATGGACCGGTTTTCCCGGTAATCCGTATTTGGA (site CCTAATACTTC) | 0.00465
56 | CCTAATACATGGACCGGTTTTCCCGGTAATCCGTATTTGGG (site CCTAATACTAC) | 0
57 | CCTAATACATGGACCGGTTTTCCCGGTAATCCGTATTTGGG (site CCTAATACTCC) | 0.011
58 | CCTAATACATGGACCGGTTTTCCCGGTAATCCGTATTTGGG (site CCTAATACTGC) | 0
59 | CCTAATACATGGACCGGTTTTCCCGGTAATCCGTATTTGGG (site CCTAATACTTC) | 0.0102
60 | CCTAATGCATGGACCGGTTTTCCCGGTAATCCGTATTTGAT (site CCTAAAGCTAT) | 0
61 | CCTAATGCATGGACCGGTTTTCCCGGTAATCCGTATTTGAT (site CCTAACGCTAT) | 0.00278
62 | CCTAATGCATGGACCGGTTTTCCCGGTAATCCGTATTTGAT (site CCTAAGGCTAT) | 0
63 | CCTAATGCATGGACCGGTTTTCCCGGTAATCCGTATTTGAT (site CCTAATGCTAT) | 0
64 | CCTACGCCATGGACCGGTTTTCCCGGTAATCCGTATTTGAA (site CCTACGCCTTT) | 0.0231
65 | CCTACTGCATGGACCGGTTTTCCCGGTAATCCGTATTTGCC (site ACTACTGCTGG) | 0
66 | CCTACTGCATGGACCGGTTTTCCCGGTAATCCGTATTTGCC (site CCTACTGCTGG) | 0.191
67 | CCTACTGCATGGACCGGTTTTCCCGGTAATCCGTATTTGCC (site GCTACTGCTGG) | 0
68 | CCTACTGCATGGACCGGTTTTCCCGGTAATCCGTATTTGCC (site TCTACTGCTGG) | 0
